In article PMC4788153, “Impact of Cytochrome P450 2D6 Function on the Chiral Blood Plasma Pharmacokinetics of 3,4-Methylenedioxymethamphetamine (MDMA) and Its Phase I and II Metabolites in Humans” (PLoS ONE, 2016):
Counter-ions that a name gives are not always drawn. Like-named read-outs stand apart in the source and are kept apart here.

Experiments:
[1] = Chiral plasma pharmacokinetics of bupropion and hydroxybupropion; details: for effect of MDMA co-administration on plasma concentrations: bupropion+MDMA vs bupropion+placebo; for half-life: both, human, plasma, oral
DAT [2] = system: DAT; parameters: method as in ref [15] (a number printed in a supplementary file, which may have a reference list of its own: not looked up in the article's list); details: rat synaptosomes, without bupropion; ref [15]; read-out: EC50 of DAT-mediated amphetamine-induced DA release; cited from earlier work
[3] = Chiral plasma pharmacokinetics of MDMA and its phase I and II metabolites after controlled MDMA administration; type: in vivo, human; details: for AUC(0-t) / Tmax / Cmax / half-life: human, plasma; for change in AUC24 after bupropion pretreatment / change in Cmax after bupropion pretreatment: bupropion+MDMA vs placebo+MDMA, unsigned = increase
Experimental: Blood plasma samples were analyzed non-stereoselectively as reported previously and reanalyzed for the present report using liquid chromatography-mass spectrometry/mass spectrometry after chiral derivatization with Marfey’s reagent as described previously. The method was fully validated, including selectivity, recovery, matrix effects, bias and imprecision, stability, and limit of quantification.

DAT [4] = details: cited from earlier work
[5] = parameters: method as in ref [46] (a number printed in a supplementary file, which may have a reference list of its own: not looked up in the article's list); details: ref [46]; cited from earlier work
[6] = 125 mg single dose; ref [3, 61]; cited from earlier work
serotonin transporter = details: four weeks after MDMA 1.5-1.7 mg/kg, MDMA-naïve volunteers; ref [123, 124]; cited from earlier work
[7] = both sexes, oral, 125 mg, placebo+MDMA (125 mg), CYP2D6 EM, n=13, plasma, read-out: AUC0-24h R
[8] = both sexes, oral, 125 mg, placebo+MDMA (125 mg), CYP2D6 EM, n=13, plasma, read-out: tmax R
[9] = both sexes, oral, bupropion+MDMA (125 mg), CYP2D6 EM (EM/Bup), n=13, plasma, read-out: AUC0-24h R
[10] = both sexes, oral, bupropion+MDMA (125 mg), CYP2D6 EM (EM/Bup), n=13, plasma, read-out: Cmax R
[11] = both sexes, oral, bupropion+MDMA (125 mg), CYP2D6 EM (EM/Bup), n=13, plasma, read-out: tmax R
[12] = both sexes, oral, placebo+MDMA (125 mg), CYP2D6 EM, n=13, plasma, read-out: Cmax R
[13] = both sexes, oral, bupropion+MDMA (125 mg), CYP2D6 EM (EM/Bup), n=13, plasma, read-out: t1/2 R (converted)
[14] = both sexes, oral, placebo+MDMA (125 mg), CYP2D6 EM, n=13, plasma, read-out: t1/2 R (converted)
[15] = bupropion+MDMA (125 mg), CYP2D6 EM (EM/Bup), n=13, plasma
[16] = placebo+MDMA (125 mg), CYP2D6 EM, n=13, plasma
[17] = placebo+MDMA (125 mg), CYP2D6 IM, n=3, plasma
[18] = placebo-pretreated EMs, same-configuration MDMA enantiomer
[19] = bupropion vs placebo pretreatment
[20] = bupropion vs placebo pretreatment, CYP2D6 EMs

With C[C@@H]1NC(C)(C)CO[C@@]1(O)c1cccc(Cl)c1 [S,S-hydroxybupropion, hydroxybupropion] the “effect of MDMA co-administration on plasma concentrations” value (“effect of MDMA co-administration” for short) [1] was “did not significantly alter”.

In the case of C[C@H]1NC(C)(C)CO[C@]1(O)c1cccc(Cl)c1 [R,R-hydroxybupropion, hydroxybupropion], the “effect of MDMA co-administration” value [1] is reported as “did not significantly alter”.

In the case of C[C@@H](NC(C)(C)C)C(=O)c1cccc(Cl)c1 [R-bupropion, bupropion], the half-life ([1]; 300 mg, t1/2 R/ R,R, bupropion+placebo (P), CYP2B6 genotype normal) is reported as 8.4 h, the half-life ([1]; 300 mg, t1/2 R/ R,R, bupropion+placebo (P), CYP2B6 genotype reduced) is reported as 8.9 h and the half-life ([1]; t1/2 R/ R,R, bupropion+MDMA (M), CYP2B6 genotype normal) is reported as 8.5 h. For the same compound, the half-life ([1]; t1/2 R/ R,R, bupropion+MDMA (M), CYP2B6 genotype reduced) was 7.5 h and the “effect of MDMA co-administration” value [1] was “did not significantly alter”.

With CC(N)Cc1ccc2c(c1)OCO2 (stereo not drawn) [R-MDA, 3,4-methylenedioxyamphetamine] the AUC(0-t) [3, 7] was 260 nM·h, the Tmax [3, 8] was 12.5 h and the AUC(0-t) [3, 9] was 190 nM·h. For the same compound, the Cmax [3, 10] was 0.01 µM, the Tmax [3, 11] was 14.9 h and the Cmax [3, 12] was 0.014 µM. For the same compound, the “change in AUC24 after bupropion pretreatment” value (“change in AUC24” for short) ([3]; CYP2D6 EMs) was -26% and the “change in Cmax after bupropion pretreatment” value (“change in Cmax” below) ([3]; CYP2D6 EMs) was -27%.

In the case of CC(NC(C)(C)C)C(=O)c1cccc(Cl)c1 (stereo not drawn) [bupropion], the “DAT occupancy in the human striatum” value (DAT [4]; 150 mg twice-daily, 3 h after last dose, 11C-βCIT-FE PET, ref [16]) is listed as 26%, the “striatal DAT occupancy” value (DAT [4]; 2.5 h after single 150 mg, 11C-raclopride PET, ref [83]) is listed as “no significant” and the T1/2 [5] is listed as 20 h.

In the case of CNC(C)Cc1ccc(OC2OC(C(=O)O)C(O)C(O)C2O)c(OC)c1 (stereo not drawn) [HMMA glucuronide], the “reduction of Cmax by bupropion” value ([3]; metabolite stereoisomers, bupropion pretreatment vs placebo (abstract)) is reported as “approximately 40%”.

With C[C@H](NC(C)(C)C)C(=O)c1cccc(Cl)c1 [S-bupropion, bupropion] the half-life ([1]; 300 mg, t1/2 S/ S,S, bupropion+placebo (P), CYP2B6 genotype normal) was 7.3 h, the half-life ([1]; 300 mg, t1/2 S/ S,S, bupropion+placebo (P), CYP2B6 genotype reduced) was 7.8 h and the half-life ([1]; t1/2 S/ S,S, bupropion+MDMA (M), CYP2B6 genotype normal) was 7.5 h. For the same compound, the half-life ([1]; t1/2 S/ S,S, bupropion+MDMA (M), CYP2B6 genotype reduced) was 6.8 h and the “effect of MDMA co-administration” value [1] was “did not significantly alter”.

In the case of CN[C@H](C)Cc1ccc(OS(=O)(=O)O)c(O)c1 [R-DHMA 4-sulfate], the “metabolite/MDMA ratio, mean constant (after approximately 2 h)” value (from here on “metabolite/MDMA ratio, mean constant”) ([3]; IMs) is reported as 0.05, the “metabolite/MDMA ratio, mean initial (highest, first hour)” value (“metabolite/MDMA ratio, mean initial” below) ([3]; IMs) is reported as 0.94 and the AUC(0-t) [3, 7] is reported as 1300 nM·h. For the same compound, the Tmax [3, 8] was 2 h, the AUC(0-t) [3, 9] was 710 nM·h and the Cmax [3, 10] was 0.037 µM. The half-life [3, 13] was 49.9 h, the Tmax [3, 11] was 3.2 h and the Cmax [3, 12] was 0.08 µM. The half-life [3, 14] was 17.5 h, the “AUCtotal R” value [3, 15] was 2.9 (2.2) μmol/l*h-1 and the “change in AUC24” value ([3]; CYP2D6 EMs) was -43%. The “change in Cmax” value ([3]; CYP2D6 EMs) was -54%, the “metabolite/MDMA ratio, mean constant” value ([3]; bupropion-pretreated EMs) was 0.05 and the “metabolite/MDMA ratio, mean initial” value ([3]; bupropion-pretreated EMs) was 0.89. The “AUCtotal R” value [3, 16] was 2.4 (1.7) μmol/l*h-1, the “AUCtotal R” value [3, 17] was 1.5 (1.0) μmol/l*h-1 and the “metabolite/MDMA ratio, mean constant” value ([3]; placebo-pretreated EMs) was 0.13. For the same compound, the “metabolite/MDMA ratio, mean initial” value [3, 18] was 4.9.

With CNC(C)Cc1ccc2c(c1)OCO2 (stereo not drawn) [MDMA, 3,4-methylenedioxymethamphetamine] the “mean overall effect on R/S ratios” value ([3]; CYP2D6 inhibition by bupropion) was “less than 10%”, the “change of R/S ratio for AUC24 after bupropion pretreatment” value [3, 19] was -9% and the “change of R/S ratio for Cmax after bupropion pretreatment” value [3, 19] was -6%. The T1/2 [6] was 9.6 h, the Tmax [6] was 2.5 h and the “change in serotonin transporter density” value (serotonin transporter) was “No changes”.

For CN[C@@H](C)Cc1ccc(OS(=O)(=O)O)c(OC)c1 [S-HMMA sulfate], the “metabolite/MDMA ratio, mean constant” value ([3]; IMs) was 0.28, the “metabolite/MDMA ratio, mean initial” value ([3]; IMs) was 2.3 and the AUC(0-t) ([3]; both sexes, oral, 125 mg, placebo+MDMA (125 mg), CYP2D6 EM, n=13, plasma, read-out: AUC0-24h S) was 4200 nM·h. It also gave a Cmax ([3]; both sexes, oral, 125 mg, placebo+MDMA (125 mg), CYP2D6 EM, n=13, plasma, read-out: Cmax S) of 0.41 µM, a half-life ([3]; both sexes, oral, 125 mg, placebo+MDMA (125 mg), CYP2D6 EM, n=13, plasma, read-out: t1/2 S (converted)) of 6.6 h and a Tmax ([3]; both sexes, oral, 125 mg, placebo+MDMA (125 mg), CYP2D6 EM, n=13, plasma, read-out: tmax S) of 1.6 h. The AUC(0-t) ([3]; both sexes, oral, bupropion+MDMA (125 mg), CYP2D6 EM (EM/Bup), n=13, plasma, read-out: AUC0-24h S) was 1600 nM·h, the Cmax ([3]; both sexes, oral, bupropion+MDMA (125 mg), CYP2D6 EM (EM/Bup), n=13, plasma, read-out: Cmax S) was 0.11 µM and the half-life ([3]; both sexes, oral, bupropion+MDMA (125 mg), CYP2D6 EM (EM/Bup), n=13, plasma, read-out: t1/2 S (converted)) was 11.1 h. For the same compound, the Tmax ([3]; both sexes, oral, bupropion+MDMA (125 mg), CYP2D6 EM (EM/Bup), n=13, plasma, read-out: tmax S) was 2.8 h, the “AUCtotal S” value [3, 15] was 2.2 (0.75) μmol/l*h-1 and the “change in AUC24” value ([3]; CYP2D6 EMs) was -61%. For the same compound, the “change in Cmax” value ([3]; CYP2D6 EMs) was -72%, the “tonset (time of first detection), mean” value ([3]; bupropion-pretreated CYP2D6 EMs) was 0.56 h and the “metabolite/MDMA ratio, mean constant” value ([3]; bupropion-pretreated EMs) was 0.21. The “metabolite/MDMA ratio, mean initial” value ([3]; bupropion-pretreated EMs) was 0.26, the AUC(0-t) ([3]; im, placebo+MDMA (125 mg), CYP2D6 IM, n=3, plasma, read-out: AUC0-24h S) was 1700 nM·h and the Cmax ([3]; im, placebo+MDMA (125 mg), CYP2D6 IM, n=3, plasma, read-out: Cmax S) was 0.14 µM. The half-life ([3]; im, placebo+MDMA (125 mg), CYP2D6 IM, n=3, plasma, read-out: t1/2 S (converted)) was 6.9 h, the Tmax ([3]; im, placebo+MDMA (125 mg), CYP2D6 IM, n=3, plasma, read-out: tmax S) was 2.5 h and the “AUCtotal S” value [3, 16] was 4.6 (1.2) μmol/l*h-1. The “AUCtotal S” value [3, 17] was 1.9 (0.34) μmol/l*h-1, the “tonset (time of first detection), mean” value ([3]; placebo-pretreated CYP2D6 EMs) was 0.33 h and the “metabolite/MDMA ratio, mean constant” value ([3]; placebo-pretreated EMs) was 0.86. The “metabolite/MDMA ratio, mean initial” value [3, 18] was 17.7.

CN[C@H](C)Cc1ccc2c(c1)OCO2 [R-MDMA, 3,4-methylenedioxymethamphetamine] showed an AUC(0-t) [3, 7] of 8700 nM·h, a Tmax [3, 8] of 2.9 h and an AUC(0-t) [3, 9] of 10900 nM·h. It also gave a Cmax [3, 10] of 0.75 µM, a half-life [3, 13] of 10.8 h and a Tmax [3, 11] of 3.3 h. For the same compound, the Cmax [3, 12] was 0.69 µM, the half-life [3, 14] was 8.2 h and the “prolongation of t1/2 after bupropion pretreatment” value [3, 20] was 31%. For the same compound, the “reduction of Cl/F after bupropion pretreatment” value [3, 20] was -23%, the “AUCtotal R” value [3, 15] was 14.2 (3.7) μmol/l*h-1 and the “CL/F R” value [3, 15] was 31.3 (8.2) l/h. The “change in AUC24” value ([3]; CYP2D6 EMs) was 25%, the “change in Cmax” value ([3]; CYP2D6 EMs) was 9% and the “AUCtotal R” value [3, 16] was 10.4 (3.6) μmol/l*h-1. The “CL/F R” value [3, 16] was 40.4 (14.2) l/h, the “AUCtotal R” value [3, 17] was 14.5 (4.3) μmol/l*h-1 and the “CL/F R” value [3, 17] was 29.8 (7.4) l/h.
